From ChEMBL document CHEMBL4251650, “Design and synthesis of 2-(4,5,6,7-tetrahydrothienopyridin-2-yl)-benzoimidazole carboxamides as novel orally efficacious Poly(ADP-ribose)polymerase (PARP) inhibitors” (Eur J Med Chem, 2018)

How the values were obtained:
[1] = Intrinsic clearance in rat liver microsomes; type: ADME, microsome; settings: read-out: CLH
[2] = Solubility of the compound in pH 6.8 solution; type: physicochemical
[3] = Intrinsic clearance in human liver microsomes; type: ADME, microsome; settings: read-out: CLH
[4] = Permeability across apical to basolateral side in human Caco2 cells; type: ADME, cell-based; settings: Caco-2, read-out: permeability
[5] = Solubility of the compound in pH 7.4 solution; type: physicochemical
[6] = Solubility of the compound in pH 7 solution; type: physicochemical
[7] = Intrinsic clearance in mouse liver microsomes; type: ADME, microsome; settings: read-out: CLH
[8] = Oral bioavailability in Sprague-Dawley rat at 10 mg/kg administered as single dose by LC-MS/MS analysis; type: ADME, organism-based; settings: in vivo
[9] = Volume of distribution at steady state in Sprague-Dawley rat at 5 mg/kg, iv administered as single dose by LC-MS/MS analysis; type: ADME, organism-based; settings: in vivo, read-out: Vdss
[10] = Tmax in Sprague-Dawley rat at 10 mg/kg, po administered as single dose by LC-MS/MS analysis; type: ADME, organism-based; settings: in vivo
[11] = AUC (0 to infinity) in Sprague-Dawley rat at 10 mg/kg, po administered as single dose by LC-MS/MS analysis; type: ADME, organism-based; design: dose 10 mg/kg, time infinity, route oral; settings: in vivo
[12] = Clearance in Sprague-Dawley rat at 5 mg/kg, iv administered as single dose by LC-MS/MS analysis; type: ADME, organism-based; settings: in vivo
[13] = Cmax in Sprague-Dawley rat at 10 mg/kg, po administered as single dose by LC-MS/MS analysis; type: ADME, organism-based; design: dose 10 mg/kg, route oral; settings: in vivo
[14] = Half life in Sprague-Dawley rat at 5 mg/kg, iv administered as single dose by LC-MS/MS analysis; type: ADME, organism-based; settings: in vivo

Row | SMILES | microsomal CLint [1] [µL/min/mg] | solubility [2] [µM] | microsomal CLint [3] [µL/min/mg] | Papp A→B [4] [×10⁻⁶ cm/s] | solubility [5] [µM] | solubility [6] [µM] | microsomal CLint [7] [µL/min/mg] | bioavailability [8] [%] | Vd [9] [L/kg] | Tmax [10] [h] | AUC(0-inf) [11] [ng·h/mL] | clearance [12] [mL/min/kg] | Cmax [13] [ng/mL] | half-life [14] [h]
1 | Cn1c(-c2cc3c(s2)CNCC3)nc2c(C(N)=O)cc(F)cc21 | 196 | > 50 | 28 | 2.65 | > 50 | > 50 | 75 |  |  |  |  |  |  | 
2 | NC(=O)c1cc(F)cc2[nH]c(-c3cc4c(s3)CNCC4)nc12 | 340 | > 50 | 23 | 0.2 | > 50 | > 50 | 123 |  |  |  |  |  |  | 
3 | Cl.Cn1c(-c2cc3c(s2)CNCC3)nc2c(C(N)=O)cc(F)cc21 |  |  |  |  |  |  |  | 26 | 13.2 | 2.25 | 245 | 194 | 61.2 | 0.89
